{"source": "patent US8722714B2", "about": "“Oxazolidine derivatives as NMDA antagonists” (The Honk Kong University of Science and Technology, priority 2008, dated 2014)", "key": {"MCAO rats": {"test_system": "MCAO rats", "assay": "Middle cerebral artery occlusion (MCAO) model: mNSS, infarct volume, edema volume", "type": "in vivo, rat", "settings": "for edema volume (% of the ipsilateral hemisphere) / infarct volume: 2 h MCAO; for infarct volume: mean±S.E.M.", "procedure": "Before surgery, male rats were 259-354 g fasted overnight with free access to water. Briefly, rats were anesthetized with chloral hydrate (400 mg/kg, ip). Through a midline neck incision, the right common and external carotid artery were isolated from muscles and coagulated. A suture with a blunted tip was inserted into the internal carotid through the external carotid artery stump and advanced up to 21 mm or till resistance was […]. A thermostatically regulated heating pad was used to maintain temperature at 37° C. After 2 h of MCAO, the suture was removed to restore blood flow. In sham group, the same surgical procedure was performed except that the suture was introduced into the external carotid artery but not advanced. After surgery, the incision was sutured and the rats were returned to their cage with free access to water and food.\nNeurological function of ischemic rats was graded on modified Neurological Severity Score (mNSS) system in a range of 0 to 18 (normal score, 0; maximal deficit score, 18). The mNSS system is a composite evaluation of motor and sensory function, balance impairment and reflex abnormality of ischemic animals (Chen et al., 2001 Intravenous administration of human umbilical cord blood reduces behavioral deficits after stroke in rats. Stroke 32:2682-8.). In the severity scores of injury, 1 score point is awarded for the inability to perform the test or for the lack of a tested reflex; thus, the higher the score, the more severe is the injury.\nAt 3 days after ischemia, whole brains were rapidly removed. The brain were sliced into 2-mm-thick coronal sections and stained with 1% 2,3,5-triphenyltetrazoliumchloride (TTC, Sigma) at 37° C. for 30 minutes in the dark, followed by fixation with 4% paraformaldehyde (PFA) at 4° C. overnight. The sections were scanned with scanner connected to a computer. The unstained areas, defined as infarct tissue, were calculated by using an image analysis program. The infarct volume was calculated by measuring the unstained area in each slice. The infarct area in each slice was calculated by subtracting the normal ipsilateral (ischemic) area from that of the contralateral (non-ischemic) hemisphere to reduce errors due to cerebral edema and was presented as a percentage relative to the area of the contralateral hemisphere.\nThe contralateral hemispheric volume was used as a control for calculation of ischemia-induced brain edema in the ipsilateral hemisphere. A net difference in hemispheric volumes was gained by subtracting the volume of the […] from that of the infracted hemisphere. Brain swelling was expressed as a percentage of the net difference in ischemic hemispheric volume over the contralateral hemispheric volume.\nRats were subjected to middle cerebral artery occlusion (MCAO) to induce focal cerebral ischemia. Neurological functions of these ischemic rats were then graded on a modified Neurological Severity Score (mNSS) system from a range of 0 to 18 (normal score, 0; maximal deficit score, 18). The mNSS system is a composite evaluation of motor and sensory function, balance impairment and reflex abnormality of ischemic animals. […]\n3 days after ischemia, whole brains were rapidly removed, sliced into 2-mm-thick coronal sections, stained with 1% 2,3,5-triphenyltetrazoliumchloride (TTC) and fixed (FIG. 6a). […] Infarct volume was measured in the coronal brain sections.\nInfarct volume and edema volume were also measured. […]"}, "ERK": {"test_system": "ERK", "assay": "Western blot detection of ERK phosphorylation in rat cortical neurons", "type": "cell-based", "settings": "500 μM; rat cortical neurons 11 DIV; vs DMSO control", "procedure": "Embryonic day 18 Sprague Dawley rat pups were decapitated, their brains removed, and the cortices were isolated. Tissues were triturated and isolated neurons were plated onto 60 mm plate and cultured with Neurobasal medium supplemented with 2% B27 (Invitrogen). Experiments were performed after 10-12 days in vitro (DIV). Cultured cells were stimulated with a test compound or vehicle control (DMSO) for different time intervals and then lysed with RIPA buffer including protease inhibitors. Cell lysates were stored at −80° C. before use. Before being loaded, the lysates were heated to 95° C. for 10 min, vortexed and centrifuged for 7 min at 15,000×g. Supernatants were electrophoresed on 10% SDS-polyacrylamide gel and transblotted to nitrocellulose membrane. The membranes were washed with 5% (w/v) powdered milk dissolved in PBS with 0.1% Triton X-100, followed by incubation at 4° C. overnight with rabbit polyclonal against phospho-ERK or phosphor-AKT (1:1000, Cell Signaling Technology). Next, the membranes were washed and incubated with horseradish peroxidase (HRP)-conjugated secondary antibodies. The signal was visualized using ECL Western Blotting Kit. Blots were stripped and probed for total ERK or AKT expression. […]\nWestern blot analysis was performed on the total cell lysates. Antibodies against phospho-ERK1/2 and phospho-AKT were used and detected with HRP conjugated secondary antibodies. […]"}}, "data": [{"smiles": "CC[C@H]1N[C@@H](CC(C)C)C(CC)(CC)O1", "note": "[LC-02]", "values": [{"measurement": "edema volume (% of the ipsilateral hemisphere)", "setting": "MCAO rats; 35 mg/kg", "value": "2.44±0.43", "unit": "%"}, {"measurement": "infarct volume", "setting": "MCAO rats; 35 mg/kg", "value": "34.45%±3.38%"}, {"measurement": "functional recovery, modified Neurological Severity Score (mNSS)", "setting": "MCAO rats; 70 mg/kg oral, 24, 48 and 72 hours after MCAO, vs vehicle", "value": "significantly improved functional recovery"}, {"measurement": "edema volume (% of the ipsilateral hemisphere)", "setting": "MCAO rats; 70 mg/kg", "value": "2.85±0.80", "unit": "%"}, {"measurement": "infarct volume", "setting": "MCAO rats; 70 mg/kg, P<0.01", "value": "18.49%±2.34%"}, {"measurement": "phosphorylation of ERK", "setting": "ERK", "value": "induced phosphorylation of ERK after a 15-min treatment period and persisted to 60 min"}]}]}
